In ChEMBL document CHEMBL5291721, “A preclinical secondary pharmacology resource illuminates target-adverse drug reaction associations of marketed drugs” (Nat Commun, 2023):

Columns and labels:
Glucagon receptor = Glucagon receptor (Homo sapiens, UniProt P47871)
[1] = molecular target: T1, Gastric inhibitory polypeptide receptor (Homo sapiens, UniProt P48546)
T1 sequence (P48546 whole entry): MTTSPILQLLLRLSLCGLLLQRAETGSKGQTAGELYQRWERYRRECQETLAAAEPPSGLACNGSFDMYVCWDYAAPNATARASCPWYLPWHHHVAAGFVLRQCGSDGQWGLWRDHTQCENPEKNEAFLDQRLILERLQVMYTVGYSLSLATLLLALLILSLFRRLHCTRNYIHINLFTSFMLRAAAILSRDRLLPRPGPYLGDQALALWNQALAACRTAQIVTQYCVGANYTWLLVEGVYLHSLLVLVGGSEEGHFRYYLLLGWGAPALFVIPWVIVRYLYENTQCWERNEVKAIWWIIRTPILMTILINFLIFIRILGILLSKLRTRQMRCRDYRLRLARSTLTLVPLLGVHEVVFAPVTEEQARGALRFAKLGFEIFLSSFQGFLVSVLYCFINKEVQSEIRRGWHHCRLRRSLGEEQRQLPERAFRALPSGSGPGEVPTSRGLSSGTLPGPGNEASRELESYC

Progesterone receptor = molecular target: T2, Progesterone receptor (Homo sapiens, UniProt P06401)
T2 sequence (P06401 whole entry): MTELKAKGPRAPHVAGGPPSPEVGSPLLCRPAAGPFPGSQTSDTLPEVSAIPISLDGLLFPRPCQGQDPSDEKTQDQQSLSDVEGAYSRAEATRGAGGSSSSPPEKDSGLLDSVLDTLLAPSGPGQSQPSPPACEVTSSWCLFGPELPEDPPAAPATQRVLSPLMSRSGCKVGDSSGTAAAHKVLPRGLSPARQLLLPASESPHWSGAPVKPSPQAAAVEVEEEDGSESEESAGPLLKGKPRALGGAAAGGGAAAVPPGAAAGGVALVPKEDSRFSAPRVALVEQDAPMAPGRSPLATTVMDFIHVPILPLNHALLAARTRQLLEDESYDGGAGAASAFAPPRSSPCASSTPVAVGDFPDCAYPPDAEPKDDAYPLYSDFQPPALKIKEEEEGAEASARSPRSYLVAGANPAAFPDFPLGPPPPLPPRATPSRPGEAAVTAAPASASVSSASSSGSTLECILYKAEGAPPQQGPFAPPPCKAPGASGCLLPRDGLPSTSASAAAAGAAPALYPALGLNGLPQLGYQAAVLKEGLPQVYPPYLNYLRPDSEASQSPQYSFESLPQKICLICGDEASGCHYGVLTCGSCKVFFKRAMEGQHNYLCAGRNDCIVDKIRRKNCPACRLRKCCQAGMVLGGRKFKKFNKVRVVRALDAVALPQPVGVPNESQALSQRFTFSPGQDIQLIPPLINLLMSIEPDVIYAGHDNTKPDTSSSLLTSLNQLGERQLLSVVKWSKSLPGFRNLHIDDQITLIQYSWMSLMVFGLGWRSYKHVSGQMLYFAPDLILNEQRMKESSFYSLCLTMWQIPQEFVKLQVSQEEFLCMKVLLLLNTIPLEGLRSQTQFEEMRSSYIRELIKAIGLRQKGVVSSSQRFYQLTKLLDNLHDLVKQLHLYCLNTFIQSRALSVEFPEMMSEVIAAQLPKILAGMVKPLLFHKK

[2] = molecular target: T3, Alpha-1A adrenergic receptor (Homo sapiens, UniProt P35348)
T3 sequence (P35348 whole entry): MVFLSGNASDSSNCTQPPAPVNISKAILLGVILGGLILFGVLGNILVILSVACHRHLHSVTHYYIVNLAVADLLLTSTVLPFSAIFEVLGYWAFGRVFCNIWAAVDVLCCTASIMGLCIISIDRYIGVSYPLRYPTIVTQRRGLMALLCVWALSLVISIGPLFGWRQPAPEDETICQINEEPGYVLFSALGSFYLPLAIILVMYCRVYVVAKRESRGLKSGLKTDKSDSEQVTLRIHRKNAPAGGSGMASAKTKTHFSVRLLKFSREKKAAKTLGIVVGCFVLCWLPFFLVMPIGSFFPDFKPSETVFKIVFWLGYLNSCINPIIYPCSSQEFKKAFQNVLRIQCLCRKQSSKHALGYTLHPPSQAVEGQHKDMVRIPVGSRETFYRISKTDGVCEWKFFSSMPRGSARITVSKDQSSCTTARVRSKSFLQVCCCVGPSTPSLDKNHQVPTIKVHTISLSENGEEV

[3] = molecular target: 5-hydroxytryptamine receptor 6 (Homo sapiens, UniProt P50406)
Glucocorticoid receptor = molecular target: T4, Glucocorticoid receptor (Homo sapiens, UniProt P04150); format: functional
T4 sequence (P04150 whole entry): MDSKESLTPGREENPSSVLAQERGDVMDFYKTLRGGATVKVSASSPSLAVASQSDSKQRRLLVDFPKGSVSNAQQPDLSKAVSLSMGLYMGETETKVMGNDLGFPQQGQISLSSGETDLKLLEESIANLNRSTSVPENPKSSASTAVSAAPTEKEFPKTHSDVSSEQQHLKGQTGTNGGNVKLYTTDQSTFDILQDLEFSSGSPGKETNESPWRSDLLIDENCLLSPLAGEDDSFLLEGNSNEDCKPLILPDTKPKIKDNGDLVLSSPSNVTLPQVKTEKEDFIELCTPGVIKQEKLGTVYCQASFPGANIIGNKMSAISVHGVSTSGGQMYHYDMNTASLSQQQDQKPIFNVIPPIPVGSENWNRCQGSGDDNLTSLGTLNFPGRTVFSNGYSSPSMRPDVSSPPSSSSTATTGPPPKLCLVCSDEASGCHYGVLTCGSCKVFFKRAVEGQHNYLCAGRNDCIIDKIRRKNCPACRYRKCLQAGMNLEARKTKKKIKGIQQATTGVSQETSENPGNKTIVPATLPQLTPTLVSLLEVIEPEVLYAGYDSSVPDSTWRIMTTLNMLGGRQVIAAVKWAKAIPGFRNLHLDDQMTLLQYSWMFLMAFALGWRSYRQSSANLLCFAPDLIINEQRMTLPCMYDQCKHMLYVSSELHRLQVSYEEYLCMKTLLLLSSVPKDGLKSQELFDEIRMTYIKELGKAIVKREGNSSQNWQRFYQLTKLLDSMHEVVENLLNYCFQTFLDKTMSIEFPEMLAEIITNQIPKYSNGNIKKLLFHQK
Note: assay procedure not described here.

Sequence of 5-hydroxytryptamine receptor 6 (P50406 whole entry): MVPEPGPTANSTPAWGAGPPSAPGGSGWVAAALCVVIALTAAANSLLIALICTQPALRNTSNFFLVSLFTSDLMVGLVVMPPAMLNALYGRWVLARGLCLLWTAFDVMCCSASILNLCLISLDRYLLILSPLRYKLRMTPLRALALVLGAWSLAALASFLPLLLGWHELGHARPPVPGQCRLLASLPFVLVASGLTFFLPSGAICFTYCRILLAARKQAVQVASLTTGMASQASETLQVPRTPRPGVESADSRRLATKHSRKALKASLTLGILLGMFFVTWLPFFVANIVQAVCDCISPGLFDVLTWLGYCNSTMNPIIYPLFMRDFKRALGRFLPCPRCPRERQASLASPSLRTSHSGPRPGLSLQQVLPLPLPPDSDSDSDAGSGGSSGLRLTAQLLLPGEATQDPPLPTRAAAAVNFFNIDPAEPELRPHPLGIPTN
Sequence of Glucagon receptor (P47871 whole entry): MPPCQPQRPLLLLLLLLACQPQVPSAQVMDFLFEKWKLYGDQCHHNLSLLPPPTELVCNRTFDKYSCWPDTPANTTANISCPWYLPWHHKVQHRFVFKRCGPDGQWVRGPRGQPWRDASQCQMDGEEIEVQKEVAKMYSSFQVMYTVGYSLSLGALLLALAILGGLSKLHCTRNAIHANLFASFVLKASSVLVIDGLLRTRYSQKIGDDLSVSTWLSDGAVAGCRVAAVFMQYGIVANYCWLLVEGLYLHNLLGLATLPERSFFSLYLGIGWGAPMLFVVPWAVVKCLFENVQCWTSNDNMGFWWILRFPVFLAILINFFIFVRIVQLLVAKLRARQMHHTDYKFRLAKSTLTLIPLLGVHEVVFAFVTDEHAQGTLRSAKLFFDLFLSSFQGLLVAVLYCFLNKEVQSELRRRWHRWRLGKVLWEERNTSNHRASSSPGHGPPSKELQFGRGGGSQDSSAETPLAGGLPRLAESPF

CCN(CC)CCNC(=O)c1cc(Cl)c(N)cc1OC [METOCLOPRAMIDE]
AC50 (Glucagon receptor): > 30 µM
AC50 [1]: > 30 µM
AC50 (Progesterone receptor): > 30 µM
AC50 [2]: > 10 µM

CCOC(=O)[C@H](CCc1ccccc1)N[C@@H](C)C(=O)N1CCC[C@H]1C(=O)O
AC50 (Glucagon receptor): > 30 µM
AC50 [1]: > 30 µM
AC50 [3]: > 10 µM
AC50 [2]: > 10 µM

CC(C)Cc1ccc(CC(=O)O)cc1 [IBUFENAC]
AC50 (Glucocorticoid receptor): > 30 µM

CCc1ccc(CCOc2ccc(CC3SC(=O)NC3=O)cc2)nc1 (stereo not drawn) [PIOGLITAZONE]
AC50 (Glucagon receptor): > 30 µM
AC50 [1]: > 30 µM
AC50 [3]: > 10 µM
AC50 (Progesterone receptor): > 30 µM
AC50 [2]: > 10 µM

CC(=O)c1ccc2c(c1)N(CCCN1CCN(CCO)CC1)c1ccccc1S2 [ACETOPHENAZINE]
AC50 (Glucocorticoid receptor): > 30 µM

NC(N)=Nc1nc(CSCCC(N)=NS(N)(=O)=O)cs1 [FAMOTIDINE]
AC50 (Glucagon receptor): > 30 µM
AC50 [1]: > 30 µM
AC50 [3]: > 10 µM
AC50 (Progesterone receptor): > 30 µM
AC50 [2]: > 10 µM

CC(N)Cc1ccccc1 (stereo not drawn) [AMPHETAMINE]
AC50 (Glucagon receptor): > 30 µM
AC50 [1]: > 30 µM
AC50 (Glucocorticoid receptor): > 30 µM
AC50 (Progesterone receptor): > 30 µM

CCc1nn(CCCN2CCN(c3cccc(Cl)c3)CC2)c(=O)n1CCOc1ccccc1 [NEFAZODONE]
AC50 (Glucagon receptor): > 30 µM
AC50 [1]: > 30 µM
AC50 [3]: 0.808 µM
AC50 (Progesterone receptor): > 30 µM
AC50 [2]: 0.13 µM

CCC[C@@H]1C[C@@H](C(=O)N[C@@H]([C@H]2O[C@H](SC)[C@H](O)[C@@H](O)[C@H]2O)[C@H](C)Cl)N(C)C1 [CLINDAMYCIN]
AC50 (Glucagon receptor): > 30 µM
AC50 [1]: > 30 µM
AC50 (Progesterone receptor): > 30 µM
AC50 [2]: > 10 µM

OCCN1CCN(CCCN2c3ccccc3C=Cc3ccccc32)CC1 [OPIPRAMOL]
AC50 [2]: 1.41 µM

CC[C@H](C)C(=O)O[C@H]1C[C@H](O)C=C2C=C[C@H](C)[C@H](CC[C@@H](O)C[C@@H](O)CC(=O)O)[C@H]21 [PRAVASTATIN]
AC50 (Glucocorticoid receptor): > 30 µM

NS(=O)(=O)c1cc2c(cc1Cl)NCNS2(=O)=O [HYDROCHLOROTHIAZIDE]
AC50 (Glucagon receptor): > 30 µM
AC50 [1]: > 30 µM
AC50 [3]: > 10 µM
AC50 (Progesterone receptor): > 30 µM
AC50 [2]: > 10 µM

NC(=O)c1cnccn1 [PYRAZINAMIDE]
AC50 (Glucagon receptor): > 30 µM
AC50 [1]: > 30 µM
AC50 [3]: > 10 µM
AC50 (Progesterone receptor): > 30 µM
AC50 [2]: > 10 µM

CC(C(=O)O)c1ccc(N2CC=CC2)c(Cl)c1 (stereo not drawn) [PIRPROFEN]
AC50 (Glucagon receptor): > 30 µM
AC50 [1]: > 30 µM
AC50 (Progesterone receptor): > 30 µM
AC50 [2]: > 10 µM

CC(C)NNC(=O)c1ccncc1 [IPRONIAZID]
AC50 (Glucocorticoid receptor): > 30 µM

CO/N=C(\C(=O)N[C@@H]1C(=O)N2C(C(=O)[O-])=C(C[N+]3(C)CCCC3)CS[C@H]12)c1csc(N)n1
AC50 (Glucocorticoid receptor): > 300 µM

NC1=NC(=O)C(c2ccccc2)O1 (stereo not drawn) [PEMOLINE]
AC50 (Progesterone receptor): > 30 µM

COC(=O)[C@@H]1CC2=CC(=O)CC[C@]2(C)[C@@]23O[C@@H]2C[C@@]2(C)[C@@H](CC[C@@]24CCC(=O)O4)[C@H]13 [EPLERENONE]
AC50 (Glucagon receptor): > 30 µM
AC50 [1]: > 30 µM

O=C(CCCCCCC(=O)Nc1ccccc1)NO [VORINOSTAT]
AC50 (Glucagon receptor): > 10 µM
AC50 [3]: > 10 µM
AC50 [2]: > 10 µM

CN1CCCC(n2nc(Cc3ccc(Cl)cc3)c3ccccc3c2=O)CC1 (stereo not drawn) [AZELASTINE]
AC50 (Glucocorticoid receptor): > 30 µM

CN(CCOc1ccc(NS(C)(=O)=O)cc1)CCc1ccc(NS(C)(=O)=O)cc1 [DOFETILIDE]
AC50 (Glucagon receptor): > 30 µM
AC50 [1]: > 30 µM
AC50 (Progesterone receptor): > 30 µM
AC50 [2]: > 10 µM

CC(C)NCC(O)COc1ccc(COCCOC(C)C)cc1 (stereo not drawn) [BISOPROLOL]
AC50 (Glucagon receptor): > 30 µM
AC50 [1]: > 30 µM
AC50 (Progesterone receptor): > 30 µM
AC50 [2]: > 10 µM

COc1cc(Nc2c(C#N)cnc3cc(OCCCN4CCN(C)CC4)c(OC)cc23)c(Cl)cc1Cl [BOSUTINIB]
AC50 (Glucagon receptor): > 30 µM
AC50 [1]: > 30 µM
AC50 [3]: > 10 µM
AC50 (Progesterone receptor): > 30 µM

C#C[C@]1(O)CC[C@H]2[C@@H]3CCc4cc(O)ccc4[C@H]3CC[C@@]21C [ETHINYL ESTRADIOL]
AC50 (Glucagon receptor): > 30 µM
AC50 [1]: > 30 µM
AC50 [3]: > 30 µM
AC50 (Glucocorticoid receptor): > 30 µM
AC50 (Progesterone receptor): > 30 µM
AC50 [2]: > 10 µM

Nc1nc(N)c2nc(-c3ccccc3)c(N)nc2n1
AC50 (Glucagon receptor): > 30 µM
AC50 [1]: > 30 µM
AC50 [3]: > 10 µM
AC50 (Progesterone receptor): > 30 µM
AC50 [2]: > 10 µM

Oc1ncnc2[nH]ncc12 [ALLOPURINOL]
AC50 (Glucagon receptor): > 30 µM
AC50 [1]: > 30 µM
AC50 (Progesterone receptor): > 30 µM
AC50 [2]: > 10 µM

COc1ccc2c(c1)C(=O)N(CCc1ccc(S(=O)(=O)NC(=O)NC3CCCCC3)cc1)C(=O)C2(C)C [GLIQUIDONE]
AC50 (Glucocorticoid receptor): 8.9 µM

C[C@H]1O[C@H](O[C@H]2[C@H](O)[C@@H](O)[C@@H](O[C@H]3[C@H](O)[C@@H](O)C(O)O[C@@H]3CO)O[C@@H]2CO)[C@H](O)[C@@H](O)[C@@H]1N[C@H]1C=C(CO)[C@@H](O)[C@H](O)[C@H]1O (stereo partly drawn) [ACARBOSE]
AC50 (Glucagon receptor): > 30 µM
AC50 [1]: > 30 µM
AC50 [3]: > 10 µM
AC50 (Progesterone receptor): > 30 µM
AC50 [2]: > 10 µM

OCc1cc([C@@H](O)CNCCCCCCOCCOCc2c(Cl)cccc2Cl)ccc1O [VILANTEROL]
AC50 (Glucocorticoid receptor): > 30 µM

Cc1ccc(C(=O)c2cc(O)c(O)c([N+](=O)[O-])c2)cc1 [TOLCAPONE]
AC50 (Glucocorticoid receptor): > 30 µM

COc1cc2c(cc1OC)C(=O)C(CC1CCN(Cc3ccccc3)CC1)C2 (stereo not drawn) [DONEPEZIL]
AC50 (Glucagon receptor): > 30 µM
AC50 [1]: > 30 µM
AC50 [3]: > 10 µM
AC50 (Progesterone receptor): > 30 µM

O=C(NC[C@H]1CN(c2ccc(N3CCOCC3=O)cc2)C(=O)O1)c1ccc(Cl)s1 [RIVAROXABAN]
AC50 (Glucocorticoid receptor): > 30 µM
